Converted amounts (≈) assume the structure as drawn. Like-named read-outs stand apart in the source and are kept apart here.
How the values were obtained:
[1] = Colorimetric assay using ALP on DOPA-Tet coated microcentrifuge tubes; assay type: biochemical; conditions: tubes coated with 10 mM DOPA-Tet, treated with enzyme and washed; 1 mg/mL p-NPP, 1 hour, room temperature
Procedure: For the colorimetric assay using ALP, TBS was chosen as the buffer for washing and testing, because the high concentration of phosphate in PBS could affect the phosphatase activity of ALP. TCO-conjugated ALP (ALP-TCO) was prepared as described elsewhere herein. 0.2 mL microcentrifuge tubes (Bio-Rad Laboratories) were coated with 10 mM DOPA-Tet. The tubes were washed thoroughly with TBS 7.5 and sonicated to remove any loose aggregates. The tubes were grafted with either 0.2 mM ALP-TCO or 0.2 mM ALP, both in TBS 7.5. 50 μL of 1 mg/mL p-NPP in TBS 8.5 was added to each tube and incubated at room temperature for 1 hour. Absorbance at 405 nm was measured on a spectrophotometer (NanoDrop One). Three replicates for each grafted molecule, ALP-TCO or ALP, were prepared and measured.

[2] = Colorimetric assay using GOx/HRP on DOPA-Tet coated microcentrifuge tubes; assay type: biochemical; conditions: tubes coated with 10 mM DOPA-Tet, treated with enzymes and washed; 1 mM D-glucose and 1 mM ABTS, 1 hour
Procedure: TCO-conjugated GOx (GOx-TCO) and HRP (HRP-TCO) were prepared as described above. 0.2 mL microcentrifuge tubes were coated with 10 mM DOPA-Tet. The tubes were washed with PBS and sonicated to help remove any loose aggregates. The tubes were grafted with either 0.2 mM GOx-TCO and 0.2 mM HRP-TCO, or 0.2 mM GOx and 0.2 mM HRP. […] Absorbance at 405 nm was measured on a spectrophotometer (NanoDrop One). Three replicates of each set of enzymes, TCO-conjugated or native, were prepared and measured.

[3] = Coating stability at various pH; assay type: physicochemical; conditions: coated glass vials, 5 days at 37° C.
Procedure: Six 4 mL glass vials (VWR International) were coated with 10 mM DOPA-Tet and incubated for 5 days at 37° C. in 1 mL of either 50 mM MES pH 4.5 (Millipore-Sigma), 100 mM IVIES pH 6.0, PBS, TBS 8.5, 100 mM NaHCO3 pH 9.5 (Millipore-Sigma) or 10% DMSO (Millipore-Sigma) in PBS. After incubation, samples were rinsed with Milli-Q water, dried, and imaged.

[4] = Coating stability in human serum, ALP activity on p-NPP afterwards; assay type: biochemical; conditions: DOPA-Tet coated glass vial, 5 days at 37° C. in human serum, then 1 mg/mL p-NPP 1 hour
Procedure: Two additional 4 mL glass vials were prepared and incubated in human serum. Both samples were coated with 10 mM DOPA-Tet, and one was grafted with 0.2 mM ALP-TCO. Both samples were incubated in 1 mL of human serum from clotted whole blood (Millipore-Sigma) for 5 days at 37° C. After incubation, both samples were washed with PBS and 1 mL of 1 mg/mL p-NPP was added. After incubation for 1 hour at room temperature, both samples were imaged and their absorbance at 405 nm was measured on a spectrophotometer (NanoDrop One).

[5] = test system: S. aureus; experiment: Planktonic bacterial growth inhibition at the surface (PrestoBlue); assay type: cell-based; conditions: coated 96-well plate, incubated overnight, resazurin readout
Procedure: The wells of a non-treated clear 96 well culture plate were either left uncoated or coated with 10 mM DOPA-Tet and then incubated with either vancomycin-TCO, vancomycin, or PBS. […] 100 μL of culture was added to the wells and the plate was covered and incubated at 37° C. for 18 hours, after which 10 μL of PrestoBlue™ was added to each well. After 1 hour incubation, the media was transferred to clean wells and absorbance at 570 nm was recorded using a plate reader.

[6] = test system: S. aureus biofilm; experiment: Biofilm crystal violet assay; assay type: cell-based; conditions: coated surfaces incubated with S. aureus for 72 hours
Procedure: 100 μL of freshly prepared coating solution containing 10 mM DOPATet and 2500 U/mL tyrosinase in PBS was added to the wells of a 96-well plate and incubated at room temperature for 6 hours. […] As described elsewhere herein, S. aureus was grown overnight in TSB, then diluted 1:100 in TSB containing 3% glucose. 300 μL of the dilute bacteria was added to the coated well plate, which was then incubated at 37° C. for 72 hours. After incubation the media was decanted, and the plate was air dried for 5 minutes. 200 μL of 0.9% NaCl in sterile water was gently added to the wells, then decanted, and air dried for 5 minutes. The wells were washed twice more with 0.9% NaCl, and after the final drying, 200 μL methanol was added to each well. The plate was left at room temperature for 15 minutes, then the methanol was decanted and the plate air dried for 5 minutes. 100 μL of 3% crystal violet in sterile water was added to the wells and incubated at room temperature for 20 minutes. The dye was decanted, and the plate air dried. The wells were washed three times with 0.9% NaCl as above. After the final air drying, 150 μL of methanol was added to the wells, and mixed to allow for dissolution of the crystal violet. The dye solution was then decanted and diluted 1:10 in methanol, then the absorbance at 590 nm was recorded.

[7] = test system: S. aureus biofilm; experiment: Biofilm microscopy (PI/SYTO 9, CLSM); assay type: cell-based; conditions: coated microscopy dishes, PI/SYTO 9 staining
Procedure: 200 μL of freshly prepared coating solution containing 10 mM DOPA-Tet and 2500 U/mL tyrosinase in PBS was added to a glass bottom culture dush. The dish was incubated at room temperature for 6 hours, during which a coating was formed. […] S. aureus was grown overnight in TSB, then diluted 1:100 in TSB containing 3% glucose. 300 μL of the dilute bacteria was added to the microscope dishes, which were then placed in a 37° C. incubator. The samples were incubated for 72 hours, with the media being topped up every day to account for evaporation. The media was decanted and then the dishes were washed with 200 μL of 0.9% NaCl, followed by a 1-hour incubation at room temperature with 250 μL of TSB containing Syto9 (10 μM) and PI (10 μM). The dyes were then decanted and the samples were washed again with saline. Finally, 150 μL of HBSS was added, and the dishes were imaged on a Leica SP8 confocal microscope.

[8] = test system: S. aureus; experiment: Minimum Inhibitory Concentration (MIC) assay; assay type: cell-based; conditions: Staphylococcus aureus; in solution, 37° C., 18 to 24 h, n=3
Procedure: A glycerol stock of S. aureus was struck on a tryptic soy agar plate and incubated overnight at 37° C. Single colonies were then picked and diluted into tryptic soy broth (TSB) and left to grow overnight. Next, the culture was diluted approximately 40-fold into fresh TSB and grown to mid-log phase (OD600=0.4 to 0.8). 5 mg/mL stock solutions of Vancomycin-TCO and vancomycin in DMSO were serially diluted two-fold with TBS across the wells of a non-treated 96-well plate, with concentrations ranging from 0.0625 to 128 μg/mL. The mid-log phase cultures were diluted to a final concentration of 5×10^5 colony forming units (CFU)/mL in TSB then 50 μL was added to each antimicrobial-containing well, giving a final antimicrobial concentration range of 0.031 to 64 μg/mL. All the plates were covered and incubated at 37° C. for 18 to 24 h. The MIC was defined as the lowest compound concentration at which no bacterial growth was visible (n=3).

[9] = Michaelis-Menten kinetics of native and TCO-conjugated ALP (UV-Vis, 405 nm); assay type: biochemical; conditions: 5 nM enzyme, p-NPP in TBS 8.5, room temperature
Procedure: Both assays produce an increase in absorbance at 405 nm, the evolution of which at room temperature was measured on a microplate reader (SpectraMax iD3) over 1 hour. […] These trials were omitted from data analysis. Velocities were estimated by linear regression, and Michaelis-Menten parameters were calculated using both Lineweaver-Burk plots and non-linear least squares regression. R-squared values for all regressions were above 0.95 with the vast majority being above 0.98.

[10] = Stability of grafted enzymes after repeated use; assay type: biochemical; conditions: enzymes grafted on DOPA-Tet coated tubes, repeated substrate and buffer incubations with washes
Procedure: Eight 0.2 mL microcentrifuge tubes were coated with 50 μL of 10 mM DOPA-Tet. The tubes were washed thoroughly with TBS (pH 7.5). Three tubes each were grafted with 50 μL of either 0.1 mM ALP-TCO or 0.1 mM GOx-TCO and 0.1 mM HRP-TCO. The two remaining coated tubes were not grafted with any enzymes. The tubes were washed thoroughly with TBS (pH 7.5). 25 μL of 1 mg/mL p-NPP in TBS (pH 8.5) was added to the ALP-grafted tubes and 25 μL 1 mM ABTS and 1 mM D-glucose in PBS (pH 7.4) was added to the GOX/HRP grafted tubes. Each substrate solution was also added to one of the tubes that was not grafted (for controls). […] Absorbance at 405 nm was measured on a spectrophotometer (Thermo Scientific NanoDropOneC). All tubes were then thoroughly washed with TBS (pH 7.5). Then TBS (pH 8.5) was added to the ALP-grafted tubes and PBS (pH 7.4) was added to the GOX/HRP grafted tubes. Each buffer solution was also added to one of the tubes that was not grafted. […] The buffer solutions were then removed from the tubes. This process of incubating with substrate and then buffer solutions was repeated for all tubes 9 more times, for a total of 10 cycles.

Cc1nnc(-c2ccc(OCCOCCOCCOCCNC(=O)C(N)Cc3ccc(O)c(O)c3)cc2)nn1 (racemic) [DOPA-Tet, (±)-2-amino-3-(3,4-dihydroxyphenyl)-N-(2-(2-(2-(2-(4-(6-methyl-1,2,4,5-tetrazin-3-yl)phenoxy)ethoxy)ethoxy)ethoxy)ethyl)propanamide]
activity (absorbance at 405 nm) [1]: 0.05 OD | activity (absorbance at 405 nm) [2]: −0.07 OD | coating stability ([3]; 10% DMSO in PBS): slightly solubilized | coating stability ([3]; buffered from pH 4.5 to 8.5): No degradation of the coating was observed | coating stability ([3]; pH 9.5): delamination and degradation of the coating were observed | ALP activity on p-NPP after incubation in human serum [4]: did not show any visually detectable activity | growth of S. aureus (planktonic) [5]: not antimicrobial | biofilm formation (crystal violet, absorbance at 590 nm) [6]: successfully inhibited biofilm formation | biofilm formation (CLSM) [7]: no biofilm was observed

CN[C@H](CC(C)C)C(=O)N[C@H]1C(=O)N[C@@H](CC(N)=O)C(=O)N[C@H]2C(=O)N[C@H]3C(=O)N[C@H](C(=O)N[C@H](C(=O)NCCOCCOCCOCCOCCOCCOCCOCCOCCNC(=O)OC4CC/C=C/CCC4)c4cc(O)cc(O)c4-c4cc3ccc4O)[C@H](O)c3ccc(c(Cl)c3)Oc3cc2cc(c3O[C@@H]2O[C@H](CO)[C@@H](O)[C@H](O)[C@H]2O[C@H]2C[C@](C)(N)[C@H](O)[C@H](C)O2)Oc2ccc(cc2Cl)[C@H]1O (some centres unmarked) [vancomycin-TCO]
MIC [8]: 16 µg/mL (≈ 8.02 µM)

ALP: alkaline phosphatase, native enzyme (SEQ ID NO:2)
Km ([9]; Lineweaver-Burk plots, read-out: Km by LB): 281 µM | Km ([9]; non-linear least squares regression, read-out: Km by nls): 207 µM | activity (absorbance at 405 nm) [1]: 1.66 OD | loss of activity on repeated use (absorbance at 405 nm) [10]: little loss of activity over 10 cycles

Source: patent US12454550B2, “Compositions and methods for bioorthogonal surface coating” (Rutgers, The State University of New Jersey, priority 2021, dated 2025)
